Reference: patent US20090181986A1, “SUBSTITUTED HETEROCYCLIC COMPOUNDS” (priority 2007, published 2009)
Like-named read-outs stand apart in the source and are kept apart here.

Experiments:
[1] = target: T1, wild-type human cardiac sodium channel, hNav1.5 (Homo sapiens, UniProt Q14524); test: Peak INa screening assay (tonic block and use-dependent block); format: cell-based; conditions: test compound at 10 μM
Procedure: (§1) The late sodium current (Late INa) and peak sodium current (Peak INa) assays are performed on an automated electrophysiology platform, PatchXpress 7000A (MDS Analytical Technologies, Sunnyvale, Calif.), which uses the whole cell patch clump technique to measure currents through the cell membrane of up to 16 cells at a time. The assay uses an HEK293 (human embryonic kidney) cell line heterologously expressing the wild-type human cardiac sodium channel, hNav1.5, purchased from Millipore (Billerica, Mass.). No beta subunits were coexpressed with the Na channel alpha subunit. […] Experiments are carried out at 24-27° C.
(§2) For both the Late INa and Peak INa assays, series resistance compensation is set to 50% and whole-cell compensation is performed automatically. […] Currents through open sodium channels are automatically recorded and stored in the DataXpress2 database (MDS Analytical Technologies, Sunnyvale, Calif.). Analysis is performed using DataXpress2 analysis software and data are compiled in Excel.
(§3) Compound stocks are routinely made in glass vials to 10 mM in dimethyl sulfoxide (DMSO). In some cases, when compounds are not soluble in DMSO, they are made in 100% ethanol. Stocks are sonicated as necessary. The extracellular solution for screening Late INa is composed of: 140 mM NaCl, 4 mM KCl, 1.8 mM CaCl2, 0.75 mM MgCl2, and 5 mM HEPES with pH adjusted to 7.4 using NaOH. The extracellular solution for screening Peak INa is composed of: 20 mM NaCl, 120 mM N-methyl-D glucamine, 4 mM KCl, 1.8 mM CaCl2, 0.75 mM MgCl2, and 5 mM HEPES with pH adjusted to 7.4 using HCl. The intracellular solution used to perfuse the inside of the cells for both the Late INa and Peak INa assays contains: 120 mM CsF, […], 5 mM EGTA, 5 mM HEPES and pH adjusted to 7.4 with CsOH. Compounds are diluted in extracellular solution to 10 mM in glass vials and then transferred to glass well plates before robotic addition to the cells. The ONa extracellular solution used at the end of each experiment for the Late INa and Peak INa assays to measure baseline current contains: 140 mM N-methyl-D-glucamine; 4 mM KCl; 1.8 mM CaCl2; 0.75 mM MgCl2; 5 mM HEPES and pH was adjusted to 7.4 with HCl.
Compounds were also evaluated for their effect in several other assays, including their effect on Peak INa. In some cases, the effect on Peak INa was measured using data from the Late INa assay. […] Since the peak INa can be very large, introducing artifacts in the recording, the concentration of Na^+ in the bath is reduced to 20 mM and a nonpermeant cation is added to compensate for the Na^+ that was omitted from the standard extracellular solution (see above). The peak INa assay uses a holding potential of −100 mV and a 20 ms test pulse to 0 mV to activate the channel. As in the Late INa assay, stepping the voltage to 0 mV causes a rapid increase in negative Na current through hNav1.5 that inactivates within a few ms. No late INa activator is added for the peak assay.
For the separate peak INa assay, both tonic (TB) block and use-dependent (UDB) block of peak inward sodium current by 10 μM compound are determined. TB is block of the channel in the resting state, before the channel opens. TB is simulated in this assay by stimulating the channel to open at a low frequency (0.1 Hz). This is done in order to measure the control current amplitude and monitor current rundown, enabling correction for rundown in the calculation of percent block for TB.

L-type calcium channel = L-type calcium channel activity well-plate assay (IMR-32 cells, Ca-4 dye, FlexStation); format: cell-based, human
Summary of the method: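 IMR-32 human neuroblastoma cells seeded overnight at 200,000 cells/well, loaded 1 h at 37° with Ca-4 dye in HBSS/20 mM HEPES pH 7.4 with 2 mM probenecid.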

[2] = target: T1, wild-type human cardiac sodium channel, hNav1.5; test: Late INa screening assay (PatchXpress whole cell patch clamp, late current generated with Tefluthrin or ATX II); format: cell-based; conditions: test compound at 10 μM
Procedure: as §1, §2
as §3, with “Compounds are diluted in extracellular solution to 10 mM in glass vials and then transferred to glass well plates before robotic addition to the cells.” left out
For the Late INa assay, sodium channels are activated every 10 seconds (0.1 Hz) by depolarizing the cell membrane to −20 mV for 250 milliseconds (ms) from a holding potential of −120 mV.
All compounds are tested to determine their activity in blocking the late sodium current. Late INa current is generated by adding 10 μM Tefluthrin (pyrethroid) to the extracellular solution while recording Na currents. […] For some experiments, 50 nM ATX II (sea anemone toxin), another late INa activator, was used to generate the late component. […] Baseline current in the absence of Na^+ ions is measured at the end of each experiment (after two additions of 0 Na solution—see above) and is used to calculate the percent block by compound.

hERG potassium channel = hERG potassium channel (Homo sapiens, UniProt Q12809); test: hERG screening assay (PatchXpress patch clamp, CHO cells)
Sequence of hERG potassium channel (Q12809 whole entry): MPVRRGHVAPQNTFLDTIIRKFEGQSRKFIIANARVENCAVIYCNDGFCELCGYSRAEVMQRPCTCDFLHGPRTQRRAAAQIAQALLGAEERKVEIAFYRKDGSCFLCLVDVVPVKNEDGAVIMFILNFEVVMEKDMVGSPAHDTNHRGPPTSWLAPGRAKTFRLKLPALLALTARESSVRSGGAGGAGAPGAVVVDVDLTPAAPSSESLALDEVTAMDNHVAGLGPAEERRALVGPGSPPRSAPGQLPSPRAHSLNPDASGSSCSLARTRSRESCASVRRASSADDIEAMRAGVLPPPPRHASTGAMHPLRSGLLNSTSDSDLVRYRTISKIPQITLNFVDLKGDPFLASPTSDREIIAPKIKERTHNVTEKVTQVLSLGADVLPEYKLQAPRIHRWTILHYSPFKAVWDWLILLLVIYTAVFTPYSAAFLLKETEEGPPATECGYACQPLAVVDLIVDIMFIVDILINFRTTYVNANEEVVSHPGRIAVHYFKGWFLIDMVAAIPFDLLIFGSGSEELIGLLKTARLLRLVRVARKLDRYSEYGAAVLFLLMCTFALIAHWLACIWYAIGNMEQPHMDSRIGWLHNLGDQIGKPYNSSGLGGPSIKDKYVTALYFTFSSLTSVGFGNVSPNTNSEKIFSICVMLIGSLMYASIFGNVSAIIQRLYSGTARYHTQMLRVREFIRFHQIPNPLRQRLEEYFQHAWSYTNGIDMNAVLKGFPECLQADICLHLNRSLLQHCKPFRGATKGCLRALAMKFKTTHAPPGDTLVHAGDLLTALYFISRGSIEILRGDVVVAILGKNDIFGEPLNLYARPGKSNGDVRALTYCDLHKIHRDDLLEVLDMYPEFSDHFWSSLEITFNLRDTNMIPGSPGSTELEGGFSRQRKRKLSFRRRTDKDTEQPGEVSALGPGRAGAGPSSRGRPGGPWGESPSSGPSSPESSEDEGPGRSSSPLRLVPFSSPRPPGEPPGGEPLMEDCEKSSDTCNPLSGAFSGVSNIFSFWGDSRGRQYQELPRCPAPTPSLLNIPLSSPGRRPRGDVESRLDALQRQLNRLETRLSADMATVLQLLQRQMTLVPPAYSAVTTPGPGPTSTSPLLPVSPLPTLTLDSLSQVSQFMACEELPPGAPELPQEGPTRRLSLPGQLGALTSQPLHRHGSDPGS
Procedure: Compounds were screened to test their activity in blocking the hERG potassium channel. The hERG channel is heterologously expressed in a CHO (Chinese Hamster Ovary) cell line. Cells are maintained with standard tissue culture procedures and stable channel expression is maintained with 500 μg/ml G418 in the culture medium. Cells are harvested for testing on the PatchXpress automated patch clamp with Acctumax (Innovative Cell Technologies, San Diego, Calif.) to isolate single cells.
The following solutions are used for electrophysiological recordings. The external solution contains: 2 mM CaCl2; 2 mM MgCl2; 4 mM KCl; 150 mM NaCl; 10 mM Glucose; 10 mM HEPES (pH 7.4 with 1M NaOH, osmolarity).
hERG channels are activated when the voltage is stepped to +20 mV from the −80 mV holding potential (see FIG. 3). During a 5 second step at +20 mV, the channels activate and then largely inactivate, so the currents are relatively small. Upon returning to −50 mV from +20 mV, hERG currents transiently become much larger as inactivation is rapidly removed and then the channel closes. The first step to −50 mV for 300 ms is used as a baseline for measuring the peak amplitude during the step to −50 mV after channel activation. The peak current at −50 mV is measured both under control conditions and after addition of compound.
All compounds are prepared as 10 mM DMSO stocks in glass vials. Stock solutions are mixed by vigorous vortexing and sonication for about 2 minutes at room temperature. For testing, compounds are diluted in glass vials using an intermediate dilution step in pure DMSO and then further diluted to working concentrations in external solution. Dilutions are prepared no longer than 20 minutes before use.
After achieving the whole-cell configuration, cells are monitored for 90 seconds to assess stability and washed with external solution for 66 seconds. The voltage protocol described above is then applied to the cells every 12 seconds and throughout the whole procedure. Only cells with stable recording parameters and meeting specified health criteria are allowed to enter the compound addition procedure.
External solution containing 0.1% DMSO (vehicle) is applied to the cells first to establish the control peak current amplitude. After allowing the current to stabilize for 3 to 5 minutes, 1 μM and then 10 μM test compounds are applied. Each compound concentration is added 4 times and cells are kept in test solution until the effect of the compound reaches steady state or for a maximum of 12 minutes. […] Washout in the external solution compartment is performed until the recovery of the current reaches steady state. Data are analyzed using DataXpress, Clampfit (Molecular Devices, Inc., Sunnyvale) and Origin 7 (Originlab Corp.)

[3] = target: T2, human cardiac L-type calcium channels (hCav1.2, coexpressed with the beta 2 subunit) (Homo sapiens, UniProt Q13936); test: L-type calcium channel patch clamp screening assay (ICaL, HEK293); format: cell-based; conditions: hCav1.2 in HEK293, percentage of current inhibited at steady state; for ICaL Patch Clamp Assay 1 μM % blk: 1 μM test compound; for ICaL Patch Clamp Assay 10 μM % blk: 10 μM test compound
T2 construct: expressed in transfected cells
Procedure: Compounds are screened to test for block of human cardiac L-type calcium channels (hCav1.2, encoded by the human CACNA1C gene and coexpressed with the beta 2 subunit, encoded by the human CACNB2 gene) expressed in an HEK293 cell line. Stable transfectants were selected using antibiotic resistance genes incorporated into the expression plasmids and selection pressure is maintained with selection antibiotics added to the culture medium. Cells are cultured using standard tissue culture methods for HEK293 cells.
Cells are harvested for addition to a PatchXpress automated patch clamp system. The external solution contains: 137 mM NaCl; 4 mM KCl; 1.8 mM CaCl2; 1 mM MgCl2; […]; 10 mM Glucose (pH adjusted to 7.4 with NaOH). The internal solution contains: 130 mM Cs Aspartate; 5 mM MgCl2; 5 mM EGTA; 4 mM ATP; 0.1 mM GTP; 10 mM HEPES (pH adjusted to 7.2 with N-methyl-D-glucamine).
Onset of block and steady state block of hCav1.2 channels are monitored using a stimulus voltage pattern consisting of a depolarizing test pulse (duration, 200 ms; amplitude, 10 mV) at 10s intervals from a −80 mV holding potential (FIG. 5). Test compound concentrations (1 μM and 10 μM) are applied cumulatively in ascending order without washout between applications. Peak current is measured during the step to 10 mV. A saturating concentration of nifedipine (10 μM) is added at the end of each experiment to completely block hCav1.2 current and verify sensitivity to channel blockade. Leakage current is measured after nifedipine addition and digitally subtracted from the total membrane current record. Each compound is applied to naive cells and each concentration is applied four times for a total exposure duration of five (5) minutes per concentration.
Test compound stock solutions are prepared in dimethyl sulfoxide (DMSO) and stored frozen. Test compound concentrations are prepared fresh daily by diluting stock solutions into the external HEPES-buffered physiological saline solution described above. […] Each test compound formulation is sonicated (Model 2510/5510, Branson Ultrasonics, Danbury, Conn.), at ambient room temperature for at least 20 minutes to facilitate dissolution. In preparation for the recording session, a glass-lined 96-well compound plate is loaded with the appropriate amounts of test and control solutions, and placed in the plate well of PatchXpress® (Model 7000A, MDS Analytical Technologies, Sunnyvale, Calif.).
Data acquisition and analyses are performed using conventional software. Steady state is defined by the limiting constant rate of change with time (linear time dependence). The steady state before and after test compound application is used to calculate the percentage of current inhibited at each concentration.

[4] = tonic block, read-out: Tonic Peak INa % blk
[5] = use-dependent block, read-out: UDB Peak INa % blk

T1 sequence (Q14524 whole entry): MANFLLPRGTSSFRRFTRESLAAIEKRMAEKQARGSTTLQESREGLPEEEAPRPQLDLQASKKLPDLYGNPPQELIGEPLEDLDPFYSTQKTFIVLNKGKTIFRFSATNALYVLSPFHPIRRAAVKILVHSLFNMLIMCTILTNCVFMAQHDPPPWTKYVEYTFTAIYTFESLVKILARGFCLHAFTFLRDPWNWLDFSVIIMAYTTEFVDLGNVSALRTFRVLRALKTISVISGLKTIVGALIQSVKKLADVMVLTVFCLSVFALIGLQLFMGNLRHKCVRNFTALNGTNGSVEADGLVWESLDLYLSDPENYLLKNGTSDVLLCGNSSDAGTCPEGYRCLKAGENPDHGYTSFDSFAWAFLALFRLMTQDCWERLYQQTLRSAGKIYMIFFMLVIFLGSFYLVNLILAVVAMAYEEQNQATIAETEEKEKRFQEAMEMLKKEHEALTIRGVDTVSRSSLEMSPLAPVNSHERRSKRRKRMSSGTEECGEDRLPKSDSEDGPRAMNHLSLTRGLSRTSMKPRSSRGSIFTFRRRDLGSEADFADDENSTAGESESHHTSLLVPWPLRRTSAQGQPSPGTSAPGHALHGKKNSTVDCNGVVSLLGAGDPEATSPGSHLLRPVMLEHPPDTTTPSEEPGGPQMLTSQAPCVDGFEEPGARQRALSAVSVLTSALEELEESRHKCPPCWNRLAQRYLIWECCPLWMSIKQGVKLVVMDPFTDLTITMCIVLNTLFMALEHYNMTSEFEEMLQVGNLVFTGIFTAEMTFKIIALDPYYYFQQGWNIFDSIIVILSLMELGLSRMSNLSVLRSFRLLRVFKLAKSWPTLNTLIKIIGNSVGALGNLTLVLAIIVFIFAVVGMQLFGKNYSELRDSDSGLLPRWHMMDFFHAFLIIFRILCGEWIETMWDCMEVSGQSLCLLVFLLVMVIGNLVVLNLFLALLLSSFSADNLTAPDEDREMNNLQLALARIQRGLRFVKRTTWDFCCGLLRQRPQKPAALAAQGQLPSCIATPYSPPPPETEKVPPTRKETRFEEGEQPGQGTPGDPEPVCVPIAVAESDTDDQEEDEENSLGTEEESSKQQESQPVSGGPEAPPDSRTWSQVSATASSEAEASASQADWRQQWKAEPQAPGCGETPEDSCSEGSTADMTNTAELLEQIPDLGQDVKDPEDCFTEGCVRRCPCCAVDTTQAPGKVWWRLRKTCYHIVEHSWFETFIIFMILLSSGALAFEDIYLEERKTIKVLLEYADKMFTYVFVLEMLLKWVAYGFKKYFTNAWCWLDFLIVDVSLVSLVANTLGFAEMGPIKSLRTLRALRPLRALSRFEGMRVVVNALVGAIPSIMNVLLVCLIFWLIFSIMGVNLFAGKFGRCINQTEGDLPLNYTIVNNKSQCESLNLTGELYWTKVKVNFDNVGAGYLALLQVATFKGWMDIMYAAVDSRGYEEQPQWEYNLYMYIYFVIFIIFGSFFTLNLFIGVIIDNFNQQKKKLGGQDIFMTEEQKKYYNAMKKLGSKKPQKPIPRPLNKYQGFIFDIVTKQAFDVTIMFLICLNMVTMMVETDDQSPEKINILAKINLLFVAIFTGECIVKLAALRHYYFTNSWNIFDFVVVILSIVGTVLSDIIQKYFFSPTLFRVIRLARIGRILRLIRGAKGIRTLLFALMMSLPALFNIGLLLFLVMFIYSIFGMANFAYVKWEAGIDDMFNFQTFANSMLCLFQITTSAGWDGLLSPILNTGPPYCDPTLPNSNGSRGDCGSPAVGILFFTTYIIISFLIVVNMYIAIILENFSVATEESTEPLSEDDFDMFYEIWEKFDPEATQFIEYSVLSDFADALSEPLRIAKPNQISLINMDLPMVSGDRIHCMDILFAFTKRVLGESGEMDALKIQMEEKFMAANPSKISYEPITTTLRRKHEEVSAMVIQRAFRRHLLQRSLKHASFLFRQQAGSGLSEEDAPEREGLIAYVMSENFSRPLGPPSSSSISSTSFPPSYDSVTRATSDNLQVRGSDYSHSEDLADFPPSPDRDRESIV

Row | SMILES | inhibition at 10 µM [1, 4] [%] | inhibition at 10 µM [1, 5] [%] | hERG Patch Clamp hERG % blk (1 μM test cmpd) (hERG potassium channel) [%] | hERG Patch Clamp hERG % blk (10 μM test cmpd) (hERG potassium channel) [%] | further results
1 | CC1=C(C(=O)O[C@H](C)c2ccccc2)C(c2cccc3ccccc23)n2nnnc2N1 (some centres unmarked) [PT-047] | – | – | – | – | Tonic Peak INa % blk ([1]; tonic block): 36.3%; CaL Plate Assay % blk (1 μM test cmpd) (L-type calcium channel; 1 μM test cmpd): 24%; CaL Plate Assay % blk (10 μM test cmpd) (L-type calcium channel; 10 μM test cmpd): 42%; Late INa % blk [2]: 67.4%
2 | CC1=C(C(=O)OCc2ccccc2)[C@@H](c2ccccc2-c2ccc(C)o2)n2nnnc2N1 [PT-235, (R)-benzyl 5-methyl-7-(2-(5-methylfuran-2-yl)phenyl)-4,7-dihydrotetrazolo[1,5-a]pyrimidine-6-carboxylate] | 8.8 | 4.5 | 10 | 41.5 | –
3 | CC1=C(C(=O)OCc2ccccc2)C(c2cccc3ccccc23)n2nnnc2N1Cc1nnn[nH]1 (centres unmarked) [PT-326, benzyl 4-((1H-tetrazol-5-yl)methyl)-5-methyl-7-(naphthalen-1-yl)-4,7-dihydrotetrazolo[1,5-a]pyrimidine-6-carboxylate] | 32.2 | 11.6 | – | – | –
4 | CC1=C(C(=O)OCc2ccccc2)C(c2ccccc2-c2ccc(NS(C)(=O)=O)cc2)c2cn[nH]c2N1 (centres unmarked) [PT-366, benzyl 6-methyl-4-(4′-(methylsulfonamido)biphenyl-2-yl)-4,7-dihydro-1H-pyrazolo[3,4-b]pyridine-5-carboxylate] | 20 | 4.6 | 28 | 92 | –
5 | COc1ccc(C2C(C(=O)OCc3ccccc3)=C(C)Nc3nnnn32)c(C#N)c1 (centres unmarked) [PT-389, benzyl 7-(2-cyano-4-methoxyphenyl)-5-methyl-4,7-dihydrotetrazolo[1,5-a]pyrimidine-6-carboxylate] | 13.9 | 2.9 | 23.5 | 69 | –
6 | CC1=C(C(=O)OCc2ccccc2)C(c2sccc2Br)n2nnnc2N1 (centres unmarked) [PT-401, benzyl 7-(3-bromothiophen-2-yl)-5-methyl-4,7-dihydrotetrazolo[1,5-a]pyrimidine-6-carboxylate] | 34.6 | 4.8 | – | – | –
7 | CCOC(=O)C1=C(C)NC(C)=C(C(=O)OCC)C1c1ccc(OC)cc1C#N [PT-431, diethyl 4-(2-cyano-4-methoxyphenyl)-2,6-dimethyl-1,4-dihydropyridine-3,5-dicarboxylate] | – | – | – | – | ICaL Patch Clamp Assay 1 μM % blk [3]: 3.7%; ICaL Patch Clamp Assay 10 μM % blk [3]: 2.4%
8 | CCOC(=O)C1=C(C)NC(C)=C(C(=O)OCC)C1c1ccc(OC)cc1F [PT-432, diethyl 4-(2-fluoro-4-methoxyphenyl)-2,6-dimethyl-1,4-dihydropyridine-3,5-dicarboxylate] | – | – | – | – | ICaL Patch Clamp Assay 1 μM % blk [3]: 3.7%; ICaL Patch Clamp Assay 10 μM % blk [3]: 35.3%
9 | CCOC(=O)C1=C(C)NC(C)=C(C(=O)OCC)C1c1ccc(N(C)C)cc1[N+](=O)[O-] [PT-437, diethyl 4-(4-(dimethylamino)-2-nitrophenyl)-2,6-dimethyl-1,4-dihydropyridine-3,5-dicarboxylate] | – | – | – | – | ICaL Patch Clamp Assay 1 μM % blk [3]: −0.1%; ICaL Patch Clamp Assay 10 μM % blk [3]: 13.2%
10 | CCOC(=O)C1=C(C)Nc2c(c(C)nn2C)C1c1cccc2ccccc12 (centres unmarked) [PT-440, ethyl 1,3,6-trimethyl-4-(naphthalen-1-yl)-4,7-dihydro-1H-pyrazolo[3,4-b]pyridine-5-carboxylate] | 2.8 | 4.3 | 12 | 48 | –
11 | CCOC(=O)C1=C(C)Nc2nnnn2C1c1ccccc1I (centres unmarked) [PT-492, ethyl 7-(2-iodophenyl)-5-methyl-4,7-dihydrotetrazolo[1,5-a]pyrimidine-6-carboxylate] | 20.6 | 4.8 | – | – | –
12 | CC1=C(C(=O)O[C@@H](C)c2ccccc2)C(c2sc3ccccc3c2C)c2cn[nH]c2N1 (some centres unmarked) [PT-523] | – | – | – | – | Tonic Peak INa % blk ([1]; tonic block): 20.8%; UDB Peak INa % blk ([1]; use-dependent block): 16.2%; Late INa % blk [2]: 66.7%
